In general, IC50 refers to the midpoint of a concentration-inhibition curve.

The record followed here is ChEMBL document CHEMBL4316632, “Antiplasmodial Diterpenoids from Psiadia arguta” (J Nat Prod, 2019).

For the assay, the system named is Plasmodium falciparum. The assay can be described thus: Antiplasmodial activity against Plasmodium falciparum 3D7 assessed as reduction in parasite viability incubated for 48 hrs by APAD colorimetric test. It is filed as functional, organism-based. To be noted: 3D7, 48 h.

With `CC(=O)OCC[C@@H](C)CC[C@@H]1[C@@]2(C)CCCC(C)(C)[C@@H]2CC[C@@]1(C)O`, the IC50 worked out at 33.2 µM.

Take `C/C(=C\CO)CC[C@@H]1[C@@]2(C)CCCC(C)(C)[C@@H]2CC[C@@]1(C)O`: the IC50 was determined as 36.6 µM.

Consider `CCC(C)CC(=O)OCCC(C)CC[C@@H]1[C@@]2(C)CCCC(C)(C)[C@@H]2CC[C@@]1(C)O` (some centres undefined), for which the half-maximal inhibitory concentration (IC50) was 54.8 µM. As for `CC(=O)OC/C=C(\C)CC[C@@H]1[C@@]2(C)CCCC(C)(C)[C@@H]2CC[C@@]1(C)O`, the figure is 29.1 µM. Turning to `CC(CCOC(=O)CC(C)CC[C@H]1[C@]2(C)CCCC(C)(C)[C@H]2CC[C@]1(C)O)CC[C@@H]1[C@@]2(C)CCCC(C)(C)[C@@H]2CC[C@@]1(C)O` (some centres undefined), the IC50 was over 50 µg/mL. The figure for `CCC(C)C(=O)OCCC(C)CC[C@@H]1[C@@]2(C)CCCC(C)(C)[C@@H]2CC[C@@]1(C)O` (some centres undefined) is 58 µM. The figure for `CC(CCOC=O)CC[C@@H]1[C@@]2(C)CCCC(C)(C)[C@@H]2CC[C@@]1(C)O` (some centres undefined) is 73 µM.

Take `C[C@H](CCO)CC[C@@H]1[C@@]2(C)CCCC(C)(C)[C@@H]2CC[C@@]1(C)O` [LABDANEDIOL]: the IC50 worked out at 22.2 µM.

For the compound `C=C[C@](C)(O)CC[C@@H]1[C@@]2(C)CCCC(C)(C)[C@@H]2CC[C@@]1(C)O` [SCLAREOL], the IC50 was 35 µM.
